The test system of series [1] is Rat vas deferens. The following applies: values marked ** (from literature); cited from earlier work.
Series [2] relates to myenteric plexus-longitudinal muscle of the guinea pig. The following applies: values marked ** (from literature); cited from earlier work.
In series [3] the test system is Rabbit vas deferens. Description: Opioid bioassay, rabbit vas deferens. The following applies: mean±SEM; peptidases inhibited by bestatin (30 μM), L-leucyl-L-leucine, thiorphan, captopril. It counts as cell-based. The protocol: (§1) Bioassays were performed using preparations of the myenteric plexus-longitudinal muscle of the guinea pig and the vasa deferentia of the mouse, rabbit and rat. According to the procedures described by McKnight et al., Eur. J. Pharmacol., 86, 393-402 (1983) and Corbett et al., Nature, 299, 79-81 (1982). The drugs were prepared as 1 mg/ml stock solutions in water and dilutions were made in Krebs solution. The bioassays were performed on [Met 5] enkephalin and C-terminally extended Met 5 enkephalins, and compared with metorphamide.
(§2) The values shown are the mean±SEM of 4 observations and of 6 for [Met^5 ]enkephalyl-Arg-Arg-Val-Gly. The activity of the peptidases was inhibited by bestatin (10 μM, or 30 μM in the rat and rabbit), L-leucyl-L-leucine ([…]), thiorphan (0.3 μM) and captopril (10 μM).

Series [4] concerns the target μ-site. Description: Binding assay in guinea pig brain homogenates, μ-ligand [3H]-[D-Ala2,MePhe4,Gly-ol5]enkephalin. The following applies: for Ki: guinea-pig brain homogenates, 150 minutes at 0° C., mean ±SEM, read-out: KI, [3H]-[DAla2,MePhe4,Gly-ol5]enkephalin (μ-site). The protocol:
(§3) [^3 H]-[D-Ala^2,MePhe^4, Gly-ol^5 ]enkephalin (1 nM) was used as μ-ligand, [^3 H]-[D-Ala^2,D-Leu^5 ]enkephalin (1 nM) as a relatively selective δ-ligand and [^3 H]-(-)-bremazocine (0.3 nM) as κ-ligand, in the presence of 100 nM each of unlabelled [D-Ala^2,MePhe^4,Gly-ol^5 ]enkephalin and [D-Ala^2,D-Leu^5 ]enkephalin for the suppression of μ- and δ-binding.
(§4) The μ- and […] of [^3 H]-(-)-bremazocine was suppressed with 100 nM each of unlabelled [D-Ala^2,MePhe^4,Gly-ol^5 ]enkephalin and [D-Ala^2,D-Leu^5 ]enkephalin.

Series [5] has as its target δ-site. In kind it is binding, guinea pig. The following applies: for Ki: guinea-pig brain homogenates, 150 minutes at 0° C., mean ±SEM, read-out: KI, [3H]-[DAla2,D-Leu5]enkephalin (δ-site). How it is done:
as §3, §4

The test system of series [6] is Mouse vas deferens. The following applies: values marked ** (from literature); cited from earlier work.
Series [7] deals with T1, κ-site (Cavia porcellus, UniProt P41144).
T1 construct: The assays used homogenates of guinea-pig brain; from tissue; host or cells: guinea pig brain homogenate
Description: Binding assay in guinea pig brain homogenates, [3H]-(-)-bremazocine after suppression of μ- and δ-binding. How it is done:
as §3, §4

For series [8], the system named is Mouse vas deferens. The experiment in a line: Opioid bioassay, mouse vas deferens. In kind it is cell-based. The following applies: mean±SEM; peptidases inhibited by bestatin, L-leucyl-L-leucine, thiorphan, captopril. The protocol:
as §1, §2

Series [9] has as its system myenteric plexus-longitudinal muscle of the guinea pig. Description: Opioid bioassay, guinea-pig myenteric plexus-longitudinal muscle. The following applies: mean±SEM; peptidases inhibited by bestatin, L-leucyl-L-leucine, thiorphan, captopril. It counts as cell-based. The protocol: as §1, §2
Series [10] has as its system Rat vas deferens. Description: Opioid bioassay, rat vas deferens. It counts as cell-based. The following applies: peptidases inhibited by bestatin (30 μM), L-leucyl-L-leucine, thiorphan, captopril. How it is done:
as §1, §2

The subject of series [11] is anti-serum (R1-3) to synthetic metorphamide. Description: Radioaminoassay of metorphamide: cross-reaction with anti-serum R1-3, 125I-labeled synthetic metorphamide as tracer. In kind it is binding, rabbit. The following applies: on a molar basis. The text has this: An anti-serum to synthetic metorphamide was generated in male New Zealand white rabbits by injecting synthetic peptide linked to bovine thyroglobulin by carbodiimide according the method of Weber et al., J. Neurochem., 38, 436-447 (1982). The resulting anti-serum (R1-3) was used in a radioaminoassay using ^125 I labeled synthetic metorphamide as a tracer. The procedure used was as described by Weber et al. with modifications described by Weber et al., Nature, 299, 77-79 (1982). The metorphamide or radioaminoassay requires the carboxylterminal amide group as part of the recognition site. On a molar basis the free carboxy derivative of metorphamide cross reacts with less than 1.02% and the analog of metorphamide in which the carboxyterminal amide was substituted by a Glycine residue cross reacts at less than 0.3%. The adrenal medulla opioid peptides Bam-22 and Bam-12 (Mizuno et al., Biochem. Biophys. Res. Commun., 95, 1482-1488 (1980); Mizuno et al., Biochem. Biophys. Res. Commun., 97, 1283-1290 (1980)) which are carboxyterminal extensions of metorphamide both cross react less than 0.006% in the radioaminoassay.

Series [12] deals with T2, carboxypeptidase A (Bos taurus, UniProt P00730).
T2 construct: purchased Sigma (printed as σ) type 1-DFP
T2 sequence (P00730 111-419): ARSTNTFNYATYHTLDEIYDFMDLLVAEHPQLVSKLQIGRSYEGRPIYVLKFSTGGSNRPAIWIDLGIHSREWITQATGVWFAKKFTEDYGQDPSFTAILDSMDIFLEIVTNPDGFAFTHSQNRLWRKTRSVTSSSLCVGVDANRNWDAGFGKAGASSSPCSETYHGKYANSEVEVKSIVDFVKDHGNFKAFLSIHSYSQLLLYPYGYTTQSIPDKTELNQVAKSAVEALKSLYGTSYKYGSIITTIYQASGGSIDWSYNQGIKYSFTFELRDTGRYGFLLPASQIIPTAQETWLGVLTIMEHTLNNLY
The experiment in a line: Carboxypeptidase A digestion of bovine metorphamide and dynorphin. In kind it is in vitro ADME. The following applies: 400 ng enzyme, 37° C., pH 7.5. The protocol:
A mixture of bovine metorphamide (30-35 pmol.) and synthetic dynorphin (60-70 pmol.) was dissolved in 1.6 ml. 0.02 m Tris buffer, containing 0.2 m NaCl and 0.1% Triton X-100, pH 7.5. 5 μl of a 20 mg/ml suspension of carboxypeptidase A (σ, type 1-DFP) containing 100 μg enzyme were dissolved in 1 ml. 10% LiCl. […] aliquots were withdrawn at times 1, 5, 10 and 60 minutes an equal volume of glacial acetic acid was added to each sample to terminate the enzyme reaction. After evaporation, the samples were assayed in triplicate by radioaminoassay for dynorphin and metorphamide. 0 time samples were withdrawn before enzyme was added to determine the amounts of peptides that were initially present in the incubation mixture. A separate sample of peptide mixture that received 4 μl of 10% LiCl without the enzyme was incubated at 37° C. for 60 minutes and 50 μl aliquots of this sample were also assayed for metorphamide and dynorphin. This latter sample served as a control for any non-specific degradation of peptide that may have occurred by unknown factors. […] The results of the digestion are shown in FIG. 2 wherein the metorphamide is indicated by O--O and dynorphin by X--X. Bovine metorphamide was stable to carboxypeptidase A digestion for at least 60 minutes while dynorphin was completely digested by the enzyme after 5 minutes.

[13] abbreviates: at KD concentrations of the tritiated ligands, total binding=1.

Like-named read-outs stand apart in the source and are kept apart here. Peptide text beside a SMILES is read from it.

T1 sequence (P41144 whole entry): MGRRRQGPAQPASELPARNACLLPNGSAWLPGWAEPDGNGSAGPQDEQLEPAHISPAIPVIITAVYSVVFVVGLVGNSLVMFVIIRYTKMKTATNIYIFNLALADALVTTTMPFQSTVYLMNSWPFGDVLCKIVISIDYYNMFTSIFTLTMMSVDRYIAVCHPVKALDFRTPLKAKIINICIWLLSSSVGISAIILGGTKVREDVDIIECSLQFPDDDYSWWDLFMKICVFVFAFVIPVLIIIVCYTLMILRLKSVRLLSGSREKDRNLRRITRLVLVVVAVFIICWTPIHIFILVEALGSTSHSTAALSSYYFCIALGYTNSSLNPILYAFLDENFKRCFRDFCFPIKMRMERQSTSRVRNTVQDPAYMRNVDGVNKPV

`CSCC[C@H](NC(=O)[C@H](Cc1ccccc1)NC(=O)CNC(=O)CNC(=O)[C@@H](N)Cc1ccc(O)cc1)C(=O)O` [A, [Met^5]enkephalin]: the IC50 is 260 nM in [1], 6.7 nM in series [2], over 10000 nM in series [3] and 1.45 nM in series [6]. Also, the inhibitory constant (Ki) in [4] was 9.5 ± 0.54 nM; in series [5], 0.91 ± 0.07 nM.

Take `CSCC[C@H](NC(=O)[C@H](Cc1ccccc1)NC(=O)CNC(=O)CNC(=O)[C@@H](N)Cc1ccc(O)cc1)C(=O)N[C@@H](CCCNC(=N)N)C(=O)N[C@@H](CCCNC(=N)N)C(=O)O` [C, [Met^5]enkephalylArg-Arg]: the Ki in [7] was 11.2 ± 1.8 nM.

With `CSCC[C@H](NC(=O)[C@H](Cc1ccccc1)NC(=O)CNC(=O)CNC(=O)[C@@H](N)Cc1ccc(O)cc1)C(=O)N[C@@H](CCCNC(=N)N)C(=O)N[C@@H](CCCNC(=N)N)C(=O)N[C@H](C(=O)O)C(C)C` [D, [Met^5 ]enkephalylArg-Arg-Val], in series [7], the Ki was 2.11 ± 0.29 nM.

For the compound `CSCC[C@H](NC(=O)[C@H](Cc1ccccc1)NC(=O)CNC(=O)CNC(=O)[C@@H](N)Cc1ccc(O)cc1)C(=O)N[C@@H](CCCNC(=N)N)C(=O)N[C@@H](CCCNC(=N)N)C(=O)N[C@H](C(=O)NCC(=O)O)C(C)C` [E] (H-YGGFMRRVG-OH; N-terminus and C-terminus assumed), the concentration for half-maximal inhibition (IC50) in series [3] was 54.7 ± 11 nM; in [8], 21.4 ± 3.1 nM; in [9], 6.62 ± 0.8 nM; in series [10], over 3000 nM. For the same compound, the Ki in series [4] is 1.39 ± 0.23 nM; in [5], 8.58 ± 1.54 nM. Besides, the “cross reaction in the metorphamide radioaminoassay” value in series [11] is recorded as “less than 0.3%”.

For the compound `CSCC[C@H](NC(=O)[C@H](Cc1ccccc1)NC(=O)CNC(=O)CNC(=O)[C@@H](N)Cc1ccc(O)cc1)C(=O)N[C@@H](CCCNC(=N)N)C(=O)N[C@@H](CCCNC(=N)N)C(=O)N[C@H](C(N)=O)C(C)C` [F], the IC50 in series [3] is 41.2 ± 4.9 nM; in series [8] it was 6.2 ± 1.1 nM; in series [9], 2.46 ± 0.34 nM; in series [10] it was over 3000 nM. In addition, in [4] (setting [13]), the “relative potency (relative affinity) at the μ-site” value is recorded as 0.66. Further, the Ki in series [4] turned out to be 0.115 ± 0.019 nM; in [5], 2.65 ± 0.23 nM. For the same compound, in series [4] (ratio of relative affinities), the “activity for the μ-binding site relative to that of morphine” value is on record as “approximately 2/3”. In addition, in series [5] (setting [13]), the “relative potency (relative affinity) at the δ-site” value turned out to be 0.03. The “relative potency (relative affinity) at the κ-site” value in series [7] (setting [13]) is reported as 0.31. Besides, in [12], the “time stable to carboxypeptidase A digestion” value was “at least 60 minutes”.

As for `CC[C@H](C)[C@H](NC(=O)[C@H](CCCNC(=N)N)NC(=O)[C@H](CCCNC(=N)N)NC(=O)[C@H](CC(C)C)NC(=O)[C@H](Cc1ccccc1)NC(=O)CNC(=O)CNC(=O)[C@@H](N)Cc1ccc(O)cc1)C(=O)N[C@@H](CCCNC(=N)N)C(=O)N1CCC[C@H]1C(=O)N[C@@H](CCCCN)C(=O)N[C@@H](CC(C)C)C(=O)N[C@@H](CCCCN)C(=O)N[C@@H](Cc1c[nH]c2ccccc12)C(=O)N[C@@H](CC(=O)O)C(=O)N[C@@H](CC(N)=O)C(=O)N[C@@H](CCC(N)=O)C(=O)O` [dynorphin], in [12], the “time after which completely digested by carboxypeptidase A” value is 5 min.

(Values after patent US4490363A, “Metorphamide--a novel morphine-like peptide” (Board of Trustees of The Leland Stanford Junior University …, priority 1983, dated 1984).)
